Test results taken from patent US10138227B2, “Heteroaryl substituted pyridines and methods of use” (AbbVie S.à.r.l., priority 2016, dated 2018).

Molecular target: T1, CFTR ΔF508 mutant (Homo sapiens, UniProt P13569, DEL508-508)
T1 construct: expressed in transfected cells; host or cells: CFBE41o- cells transduced with adenoviral vectors
Experiment: YFP-halide influx assay for the CFTR-ΔF508 mutation
Format: cell-based
Settings: CFBE41o- cells expressing CFTR ΔF508 and YFP reporter, forskolin 10.67 μM; for EC50: (1-F/F0) vs concentration
From the text: The YFP halide influx assay measured the functionality of the cystic fibrosis Transmembrane Conductance regulator (CFTR) channels in the cystic fibrosis bronchial epithelium cell line CFBE41o-. The assay was used to evaluate the capacity of compounds to increase the open probability of existing CFTR channels in the membrane. It makes use of the observation that the yellow fluorescent protein (YFP) variant YFP H148Q, I152L, F47L has its fluorescence substantially quenched by halide ions like Cl^− and I^− (Galietta, L. J. V., Haggie, P. M., Verkman, A. S., 2001. Green fluorescent protein-based halide indicators with improved chloride and iodide affinities. FEBS Lett. 499, 220-224. doi:10.1016/S0014-5793(01)02561-3; Nagai, T., Ibata, K., Park, E. S., Kubota, M., Mikoshiba, K., Miyawaki, A., 2002. A variant of yellow fluorescent protein with fast and efficient maturation for cell-biological applications. Nat. Biotechnol. 20, 87-90. doi:10.1038/nbt0102-87).
For this purpose, CFBE410-cells were seeded in 384 well plates (3000 CFBE cells/well). One day after seeding, the CFBE cells were transduced with adenoviral vectors that direct the expression of the CFTR ΔF508 mutant and of the YFP reporter. Cells were incubated at 27° C., 5% CO2 for 24 hours so as to allow for the proper folding and migration to the membrane of the CFTR channel or treated with a CFTR modulator during 24 hours at 37° C.
The I-induced quenching of fluorescence was recorded on an immediately after injection of iodide for 2 minutes on an FDSS/μCell (Hamamatsu). The capacity of a compound to increase the channel opening was directly correlated with the decrease in fluorescence, and was expressed as (1-(fluorescence after 36 seconds (F)/fluorescence before injection (F0))) and an EC50 was derived from a (1-F/F0) vs compound concentration plot.

T1 sequence (P13569 with tags, fused parts or gaps DEL508-508): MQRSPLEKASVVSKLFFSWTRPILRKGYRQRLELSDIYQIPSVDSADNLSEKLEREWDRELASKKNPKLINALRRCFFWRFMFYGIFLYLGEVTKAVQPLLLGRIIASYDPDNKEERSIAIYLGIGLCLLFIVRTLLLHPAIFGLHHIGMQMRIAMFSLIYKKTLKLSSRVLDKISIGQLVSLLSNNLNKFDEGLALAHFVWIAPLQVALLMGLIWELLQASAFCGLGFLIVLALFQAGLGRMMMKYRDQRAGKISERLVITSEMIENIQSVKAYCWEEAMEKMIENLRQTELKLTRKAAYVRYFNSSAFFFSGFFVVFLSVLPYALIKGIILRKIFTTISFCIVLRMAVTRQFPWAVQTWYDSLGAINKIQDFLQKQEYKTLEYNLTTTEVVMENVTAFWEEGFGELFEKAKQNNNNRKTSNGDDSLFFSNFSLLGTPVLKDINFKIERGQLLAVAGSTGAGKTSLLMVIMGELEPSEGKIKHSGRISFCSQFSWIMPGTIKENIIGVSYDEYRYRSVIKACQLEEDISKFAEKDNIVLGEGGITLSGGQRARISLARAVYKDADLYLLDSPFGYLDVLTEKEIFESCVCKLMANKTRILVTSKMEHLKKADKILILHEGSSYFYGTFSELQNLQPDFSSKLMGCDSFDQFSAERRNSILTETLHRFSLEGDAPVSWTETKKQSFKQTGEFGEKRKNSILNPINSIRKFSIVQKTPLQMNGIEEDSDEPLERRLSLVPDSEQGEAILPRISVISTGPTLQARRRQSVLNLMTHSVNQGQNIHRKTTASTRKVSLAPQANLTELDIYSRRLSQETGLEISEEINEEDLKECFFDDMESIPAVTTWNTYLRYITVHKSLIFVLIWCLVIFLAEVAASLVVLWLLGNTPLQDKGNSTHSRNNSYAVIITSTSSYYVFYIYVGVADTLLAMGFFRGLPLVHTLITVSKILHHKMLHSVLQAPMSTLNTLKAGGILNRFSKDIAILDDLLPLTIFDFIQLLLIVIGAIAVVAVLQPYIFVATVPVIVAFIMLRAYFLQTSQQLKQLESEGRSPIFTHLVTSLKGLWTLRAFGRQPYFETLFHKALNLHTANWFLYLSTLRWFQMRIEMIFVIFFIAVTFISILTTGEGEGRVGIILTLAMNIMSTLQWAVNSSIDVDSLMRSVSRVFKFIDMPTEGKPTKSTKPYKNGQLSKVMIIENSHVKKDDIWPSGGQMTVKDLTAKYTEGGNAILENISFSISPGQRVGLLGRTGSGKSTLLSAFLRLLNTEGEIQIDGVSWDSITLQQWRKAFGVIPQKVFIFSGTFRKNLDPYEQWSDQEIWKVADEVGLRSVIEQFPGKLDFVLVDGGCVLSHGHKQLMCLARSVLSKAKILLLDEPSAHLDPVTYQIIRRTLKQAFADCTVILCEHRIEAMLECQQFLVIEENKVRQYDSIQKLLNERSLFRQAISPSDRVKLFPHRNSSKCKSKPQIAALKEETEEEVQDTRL

Row | % Activation [%] | EC50 [nM] | Compound
1 | 50.3 |  | Nc1cc(S(=O)(=O)c2ccc(OC(F)(F)F)cc2)cnc1-c1nnc(COC(F)(F)F)s1 [Compound 28, 5-[4-(trifluoromethoxy)benzene-1-sulfonyl]-2-{5-[(trifluoromethoxy)methyl]-1,3,4-thiadiazol-2-yl}pyridin-3-amine]
2 | 102.9 | 16 | Nc1cc(S(=O)(=O)c2ccc(OC(F)(F)F)cc2)cnc1-c1nnc(COC2CCOC2)s1 (stereo not shown) [Compound 29, 2-(5-{[(oxolan-3-yl)oxy]methyl}-1,3,4-thiadiazol-2-yl)-5-[4-(trifluoromethoxy)benzene-1-sulfonyl]pyridin-3-amine]
3 | 94.98 | 3.61 | Nc1cc(S(=O)(=O)c2ccc(OC(F)(F)F)cc2)cnc1-c1nnc(COC(F)F)s1 [Compound 30, 2-{5-[(difluoromethoxy)methyl]-1,3,4-thiadiazol-2-yl}-5-[4-(trifluoromethoxy)benzene-1-sulfonyl]pyridin-3-amine]
4 | 102.85 | 36.9 | Nc1cc(S(=O)(=O)c2ccc(OC(F)(F)F)cc2)cnc1-c1nnc(C[C@@H]2CCCO2)s1 [Compound 31, 2-(5-{[(2S)-oxolan-2-yl]methyl}-1,3,4-thiadiazol-2-yl)-5-[4-(trifluoromethoxy)benzene-1-sulfonyl]pyridin-3-amine]
5 | 105.02 | 36.6 | Nc1cc(S(=O)(=O)c2ccc(OC(F)(F)F)cc2)cnc1-c1nnc(C[C@H]2CCCO2)s1 [Compound 32, 2-(5-{[(2R)-oxolan-2-yl]methyl}-1,3,4-thiadiazol-2-yl)-5-[4-(trifluoromethoxy)benzene-1-sulfonyl]pyridin-3-amine]
6 | 103.5 | 39.8 | COCCOCc1nnc(-c2ncc(S(=O)(=O)c3ccc(OC(F)(F)F)cc3)cc2N)o1 [Compound 33, 2-{5-[(2-methoxyethoxy)methyl]-1,3,4-oxadiazol-2-yl}-5-[4-(trifluoromethoxy)benzene-1-sulfonyl]pyridin-3-amine]
7 | 102.19 | 21.3 | CO[C@H](C)c1nnc(-c2ncc(S(=O)(=O)c3ccc(OC(F)(F)F)cc3)cc2N)o1 [Compound 34, 2-{5-[(1R)-1-methoxyethyl]-1,3,4-oxadiazol-2-yl}-5-[4-(trifluoromethoxy)benzene-1-sulfonyl]pyridin-3-amine]
8 | 98.52 | 20.8 | CO[C@@H](C)c1nnc(-c2ncc(S(=O)(=O)c3ccc(OC(F)(F)F)cc3)cc2N)o1 [Compound 35, 2-{5-[(1S)-1-methoxyethyl]-1,3,4-oxadiazol-2-yl}-5-[4-(trifluoromethoxy)benzene-1-sulfonyl]pyridin-3-amine]
9 | 102.93 | 12.3 | CCOCc1nnc(-c2ncc(S(=O)(=O)c3ccc(OC(F)(F)F)cc3)cc2N)o1 [Compound 36, 2-[5-(ethoxymethyl)-1,3,4-oxadiazol-2-yl]-5-[4-(trifluoromethoxy)benzene-1-sulfonyl]pyridin-3-amine]
10 | 119.85 | 28.7 | COCc1nnc(-c2ncc(S(=O)(=O)c3ccc(OC(F)(F)F)cc3)cc2N)o1 [Compound 37, 2-[5-(methoxymethyl)-1,3,4-oxadiazol-2-yl]-5-[4-(trifluoromethoxy)benzene-1-sulfonyl]pyridin-3-amine]
11 | 109.05 | 224 | Nc1cc(S(=O)(=O)c2ccc(OC(F)(F)F)cc2)cnc1-c1nnc(COc2cccnc2)o1 [Compound 38, 2-(5-{[(pyridin-3-yl)oxy]methyl}-1,3,4-oxadiazol-2-yl)-5-[4-(trifluoromethoxy)benzene-1-sulfonyl]pyridin-3-amine]
12 | 119.45 | 9.88 | Nc1cc(S(=O)(=O)c2ccc(OC(F)(F)F)cc2)cnc1-c1nnc(COC(F)F)o1 [Compound 39, 2-{5-[(difluoromethoxy)methyl]-1,3,4-oxadiazol-2-yl}-5-[4-(trifluoromethoxy)benzene-1-sulfonyl]pyridin-3-amine]
13 | 106.65 | 36.8 | Nc1cc(S(=O)(=O)c2ccc(OC(F)(F)F)cc2)cnc1-c1nnc(C[C@@H]2CCCO2)o1 [Compound 40, 2-(5-{[(2S)-oxolan-2-yl]methyl}-1,3,4-oxadiazol-2-yl)-5-[4-(trifluoromethoxy)benzene-1-sulfonyl]pyridin-3-amine]
14 | 96.97 | 41.3 | Nc1cc(S(=O)(=O)c2ccc(OC(F)(F)F)cc2)cnc1-c1nnc(C[C@H]2CCCO2)o1 [Compound 41, 2-(5-{[(2R)-oxolan-2-yl]methyl}-1,3,4-oxadiazol-2-yl)-5-[4-(trifluoromethoxy)benzene-1-sulfonyl]pyridin-3-amine]
15 | 109.65 | 1.57 | CC(O)c1nnc(-c2ncc(S(=O)(=O)c3ccc(OC(F)(F)F)cc3)cc2N)o1 (stereo not shown) [Compound 42, 1-(5-{3-amino-5-[4-(trifluoromethoxy)benzene-1-sulfonyl]pyridin-2-yl}-1,3,4-oxadiazol-2-yl)ethan-1-ol]
16 | 110.8 | < 0.77 | CC(C)(O)c1nnc(-c2ncc(S(=O)(=O)c3ccc(OC(F)(F)F)cc3)cc2N)o1 [Compound 43, 2-(5-{3-amino-5-[4-(trifluoromethoxy)benzene-1-sulfonyl]pyridin-2-yl}-1,3,4-oxadiazol-2-yl)propan-2-ol]
17 | 105.25 | 1.63 | Nc1cc(S(=O)(=O)c2ccc(OC(F)(F)F)cc2)cnc1-c1nnc([C@@H](O)Cc2ccccc2)o1 [Compound 44, (1S)-1-(5-{3-amino-5-[4-(trifluoromethoxy)benzene-1-sulfonyl]pyridin-2-yl}-1,3,4-oxadiazol-2-yl)-2-phenyl ethan-1-ol]
18 | 109.25 | 1.13 | Nc1cc(S(=O)(=O)c2ccc(OC(F)(F)F)cc2)cnc1-c1nnc([C@@H](O)c2ccccc2)o1 [Compound 45, (S)-(5-{3-amino-5-[4-(trifluoromethoxy)benzene-1-sulfonyl]pyridin-2-yl}-1,3,4-oxadiazol-2-yl)(phenyl)methanol]
19 | 82.3 | > 1660 | COC(C)(C)c1noc(-c2ncc(S(=O)(=O)c3ccc(OC(F)(F)F)cc3)cc2N)n1 [Compound 46, 2-[3-(2-methoxypropan-2-yl)-1,2,4-oxadiazol-5-yl]-5-[4-(trifluoromethoxy)benzene-1-sulfonyl]pyridin-3-amine]
20 | 59.4 | > 1660 | COC(C)c1noc(-c2ncc(S(=O)(=O)c3ccc(OC(F)(F)F)cc3)cc2N)n1 (stereo not shown) [Compound 47, 2-[3-(1-methoxyethyl)-1,2,4-oxadiazol-5-yl]-5-[4-(trifluoromethoxy)benzene-1-sulfonyl]pyridin-3-amine]
21 | 6.28 | > 4990 | Nc1cc(S(=O)(=O)c2ccc(OC(F)(F)F)cc2)cnc1-c1nc(C2CCOCC2)no1 [Compound 48, 2-[3-(oxan-4-yl)-1,2,4-oxadiazol-5-yl]-5-[4-(trifluoromethoxy)benzene-1-sulfonyl]pyridin-3-amine]
22 | 29.2 | > 3320 | Nc1cc(S(=O)(=O)c2ccc(OC(F)(F)F)cc2)cnc1-c1nc(COc2ccc(F)cc2)no1 [Compound 49, 2-{3-[(4-fluorophenoxy)methyl]-1,2,4-oxadiazol-5-yl}-5-[4-(trifluoromethoxy)benzene-1-sulfonyl]pyridin-3-amine]
